Test results from patent publication US20130096149A1, “HETEROARYL COMPOUNDS AND COMPOSITIONS AS PROTEIN KINASE INHIBITORS” (NOVARTIS AG, priority 2010, published 2013).

Biological target: b-Raf(V600E) (Homo sapiens, UniProt P15056, V600E)
Assay: Raf/Mek Amplified Luminescence Proximity Homogeneous Assay (Alpha Screen)
Format: biochemical
Conditions: b-Raf(V600E) approximately 4 pM; biotinylated Mek, kinase dead approximately 10 nM; ATP 10 μM; pre-incubation 60 minutes; reaction 3 hours at room temperature; read-out: mut-bRaf IC50
Procedure: Raf/Mek Amplified Luminescence Proximity Homogeneous Assay
Assay buffer: 50 mM Tris, pH 7.5, 15 mM MgCl2, 0.01% Bovine Serum Albumin (BSA), 1 mM dithiothreitol (DTT) Stop buffer: 60 mM ethylenediaminetetraacetic acid (EDTA), 0.01% Tween® 20 Bead buffer: 50 mM Tris, pH 7.5, 0.01% Tween® 20 […]
biotinylated Mek, kinase dead
Alpha Screen detection kit (available from PerkinElmer™, #6760617R)
Anti phospho-MEK1/2 (available from Cell Signaling Technology, Inc. #9121) 384 well assay plates (White Greiner® plates, #781207) […]
b-Raf(V600E) approximately 4 pM […]
biotinylated Mek, Kinase dead approximately 10 nM
Pre-incubation time with compounds 60 minutes at room temperature
Reaction time 1 or 3 hours at room temperature
Raf and biotinylated Mek, kinase dead, were combined at 2× final concentrations in assay buffer (50 mM Tris, pH 7.5, 15 mM MgCl2, 0.01% BSA and 1 mM DTT) and dispensed 10 μl per well in assay plates (Greiner white 384 well assay plates #781207) containing 0.5 μl of 40× of a raf kinase inhibitor test compound diluted in 100% DMSO. The plate was incubated for 60 minutes at room temperature.
The Raf kinase activity reaction was started by the addition of 10 μL per well of 2×ATP diluted in assay buffer. After 3 hours (bRaf(V600E)) or 1 hour (c-Raf), the reactions were stopped with the addition of 10 μL of stop reagent (60 mM EDTA). Phosphorylated product was measured using a rabbit anti-p-MEK (Cell Signaling, #9121) antibody and the Alpha Screen IgG (ProteinA) detection Kit (PerkinElmer #6760617R), by the addition of 30 μL to the well of a mixture of the antibody (1:2000 dilution) and detection beads (1:2000 dilution of both beads) in bead buffer (50 mM Tris, pH 7.5, 0.01% Tween20). The additions were carried out under dark conditions to protect the detection beads from light. A lid was placed on top of the plate and incubated for 1 hour at room temperature, then the luminescence was read on a PerkinElmer Envision instrument. The concentration of each compound for 50% inhibition (IC50) was calculated by non-linear regression using XL Fit data analysis software.

Chain of b-Raf(V600E) (P15056 whole entry V600E): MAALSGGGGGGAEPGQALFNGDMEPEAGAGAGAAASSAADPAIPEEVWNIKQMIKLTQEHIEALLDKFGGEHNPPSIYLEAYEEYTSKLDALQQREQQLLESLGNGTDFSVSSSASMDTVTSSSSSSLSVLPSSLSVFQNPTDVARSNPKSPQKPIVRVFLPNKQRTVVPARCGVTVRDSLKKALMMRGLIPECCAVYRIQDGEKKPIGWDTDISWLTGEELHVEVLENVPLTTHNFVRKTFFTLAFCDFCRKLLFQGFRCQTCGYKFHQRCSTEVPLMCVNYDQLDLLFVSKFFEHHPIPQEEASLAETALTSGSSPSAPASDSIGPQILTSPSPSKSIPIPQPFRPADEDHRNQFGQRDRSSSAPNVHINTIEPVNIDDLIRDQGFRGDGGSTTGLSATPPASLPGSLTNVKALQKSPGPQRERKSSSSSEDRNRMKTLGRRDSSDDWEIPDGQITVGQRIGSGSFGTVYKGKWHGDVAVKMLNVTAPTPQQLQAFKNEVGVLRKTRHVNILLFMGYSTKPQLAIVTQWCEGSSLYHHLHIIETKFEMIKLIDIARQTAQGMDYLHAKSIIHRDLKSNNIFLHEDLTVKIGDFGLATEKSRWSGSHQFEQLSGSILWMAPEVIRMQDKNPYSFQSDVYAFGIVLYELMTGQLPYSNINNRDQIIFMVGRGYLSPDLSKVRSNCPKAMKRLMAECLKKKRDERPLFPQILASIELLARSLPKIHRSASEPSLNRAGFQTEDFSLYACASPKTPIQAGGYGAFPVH

SMILES | IC50 [nM]
CCCNc1nccc(-c2oc(C3CC3)nc2-c2cccc(NS(C)(=O)=O)c2Cl)n1 [Example 43] | 62
CCCS(=O)(=O)Nc1cccc(-c2nc(C3CC3)oc2-c2ccnc(NC[C@H](C)NC(=O)OC)n2)c1Cl [Example 31] | 1.3
CCCS(=O)(=O)Nc1cc(Cl)cc(-c2nc(C(C)(C)C)sc2-c2ccnc(NC[C@H](C)NC(=O)OC)n2)c1Cl [Example 48] | 0.7
CC(C)(C)c1nc(-c2cccc(NS(C)(=O)=O)c2Cl)c(-c2ccnc(N)n2)s1 [Example 24] | 46
CCCS(=O)(=O)Nc1cccc(-c2nc(C3CC3)oc2-c2ccnc(N)n2)c1F [Example 39] | 2.1
CS(=O)(=O)Nc1cccc(-c2nc(C3CC3)sc2-c2ccnc(N)n2)c1Cl [Example 32] | 44
COC(=O)N[C@@H](C)CNc1nccc(-c2oc(C3CC3)nc2-c2cc(Cl)cc(NS(C)(=O)=O)c2Cl)n1 [Example 60] | 0.46
CNc1nccc(-c2sc(C(C)(C)C)nc2-c2cc(F)cc(NS(C)(=O)=O)c2Cl)n1 [Example 11] | 6
CS(=O)(=O)Nc1cc(Cl)cc(-c2nc(C3CC3)oc2-c2ccnc(N)n2)c1F [Example 22] | 3.3
COC(=O)N[C@@H](C)CNc1nccc(-c2sc(C3CC3)nc2-c2cc(F)cc(NS(C)(=O)=O)c2Cl)n1 [Example 3, (S)-methyl 1-(4-(4-(2-chloro-5-fluoro-3-(methylsulfonamido)phenyl)-2-cyclopropylthiazol-5-yl)pyrimidin-2-ylamino)propan-2-ylcarbamate] | 0.22
CCCS(=O)(=O)Nc1cccc(-c2nc(C3CC3)oc2-c2ccnc(N)n2)c1Cl [Example 30] | 1.2
COC(=O)N[C@@H](C)CNc1nccc(-c2sc(C3CC3)nc2-c2cc(Cl)cc(NS(C)(=O)=O)c2F)n1 [Example 4, (S)-methyl 1-(4-(4-(5-chloro-2-fluoro-3-(methylsulfonamido)phenyl)-2-cyclopropylthiazol-5-yl)pyrimidin-2-ylamino)propan-2-ylcarbamate] | 0.12
CCCS(=O)(=O)Nc1cc(F)cc(-c2nc(C(C)(C)C)sc2-c2ccncn2)c1Cl [Example 2, N-(3-(2-tert-butyl-5-(pyrimidin-4-yl)thiazol-4-yl)-2-chloro-5-fluorophenyl)propane-1-sulfonamide] | 0.44
CNc1nccc(-c2sc(C(C)(C)C)nc2-c2cccc(NS(C)(=O)=O)c2Cl)n1 [Example 27] | 44
CCCS(=O)(=O)Nc1cc(F)cc(-c2nc(C3CC3)sc2-c2ccnc(NC[C@H](C)NC(=O)OC)n2)c1Cl [Example 15] | 0.077
CCCS(=O)(=O)Nc1cc(Cl)cc(-c2nc(C3CC3)oc2-c2ccnc(NC)n2)c1F [Example 62] | 0.28
CCCS(=O)(=O)Nc1cccc(-c2nc(C3CC3)oc2-c2ccnc(NC[C@H](C)NC(=O)OC)n2)c1F [Example 38] | 0.59
COC(=O)N[C@@H](C)CNc1nccc(-c2sc(C3CC3)nc2-c2cccc(NS(C)(=O)=O)c2Cl)n1 [Example 33] | 0.42
COC(=O)N[C@@H](C)CNc1nccc(-c2sc(C(C)(C)C)nc2-c2cccc(NS(C)(=O)=O)c2Cl)n1 [Example 25] | 0.32
CCCS(=O)(=O)Nc1cccc(-c2nc(C(C)(C)C)sc2-c2ccnc(NC[C@H](C)NC(=O)OC)n2)c1Cl [Example 7, (S)-methyl 1-(4-(2-tert-butyl-4-(2-chloro-3-(propylsulfonamido)phenyl)thiazol-5-yl)pyrimidin-2-ylamino)propan-2-ylcarbamate] | 0.22
CCCS(=O)(=O)Nc1cc(F)cc(-c2nc(C(C)(C)C)sc2-c2ccnc(NC)n2)c1Cl [Example 8] | 0.14
CS(=O)(=O)Nc1cc(Cl)cc(-c2nc(C3CC3)sc2-c2ccnc(N)n2)c1F [Example 21] | 5.8
CCCS(=O)(=O)Nc1cccc(-c2nc(C3CC3)sc2-c2ccnc(NC[C@H](C)NC(=O)OC)n2)c1F [Example 40] | 0.12
CCCS(=O)(=O)Nc1cc(Cl)cc(-c2nc(C3CC3)sc2-c2ccnc(NC[C@H](C)NC(=O)OC)n2)c1F [Example 65] | 0.09
COC(=O)N[C@@H](C)CNc1nccc(-c2oc(C3CC3)nc2-c2cccc(NS(C)(=O)=O)c2Cl)n1 [Example 44] | 1.3
CCCS(=O)(=O)Nc1cc(F)cc(-c2nc(C(C)(C)C)sc2-c2ccnc(NC[C@H](C)NC(=O)OC)n2)c1Cl [Example 10] | 0.33
COC(=O)N[C@@H](C)CNc1nccc(-c2sc(C(C)(C)C)nc2-c2cccc(NS(C)(=O)=O)c2F)n1 [Example 36] | 0.43
CS(=O)(=O)Nc1cc(F)cc(-c2nc(C3CC3)sc2-c2ccnc(N)n2)c1Cl [Example 16] | 15

SMILES | IC50 [nM]
CNc1nccc(-c2oc(C3CC3)nc2-c2cc(Cl)cc(NS(C)(=O)=O)c2Cl)n1 [Example 59] | 1.5
COC(=O)N[C@@H](C)CNc1nccc(-c2oc(C3CC3)nc2-c2cc(Cl)cc(NS(C)(=O)=O)c2F)n1 [Example 5, (S)-methyl 1-(4-(4-(5-chloro-2-fluoro-3-(methylsulfonamido)phenyl)-2-cyclopropyloxazol-5-yl)pyrimidin-2-ylamino)propan-2-ylcarbamate] | 0.82
CS(=O)(=O)Nc1cc(F)cc(-c2nc(C3CC3)oc2-c2ccnc(N)n2)c1Cl [Example 17] | 2.7
CCCS(=O)(=O)Nc1cc(Cl)cc(-c2nc(C3CC3)oc2-c2ccnc(NC[C@H](C)NC(=O)OC)n2)c1Cl [Example 57] | 0.56
CCCS(=O)(=O)Nc1cc(Cl)cc(-c2nc(C(C)(C)C)sc2-c2ccnc(N)n2)c1Cl [Example 47] | 0.13
CCCS(=O)(=O)Nc1cc(Cl)cc(-c2nc(C3CC3)oc2-c2ccnc(N)n2)c1Cl [Example 56] | 0.022
CCCS(=O)(=O)Nc1cc(Cl)cc(-c2nc(C3CC3)oc2-c2ccnc(NC[C@H](C)NC(=O)OC)n2)c1F [Example 64] | 0.28
CNc1nccc(-c2sc(C3CC3)nc2-c2cc(Cl)cc(NS(C)(=O)=O)c2F)n1 [Example 20] | 3
CS(=O)(=O)Nc1cc(Cl)cc(-c2nc(C3CC3)sc2-c2ccnc(N)n2)c1Cl [Example 53] | 0.45
COCC(=O)N[C@@H](C)CNc1nccc(-c2oc(-c3ccc(F)cc3)nc2-c2cc(C)cc(NS(C)(=O)=O)c2Cl)n1 [Example 42] | 3.1
CCCS(=O)(=O)Nc1cccc(-c2nc(C3CC3)sc2-c2ccnc(N)n2)c1Cl [Example 29] | 3.4
CCCS(=O)(=O)Nc1cc(Cl)cc(-c2nc(C3CC3)sc2-c2ccnc(NC)n2)c1Cl [Example 51] | 0.08
CNc1nccc(-c2oc(C3CC3)nc2-c2cc(F)cc(NS(C)(=O)=O)c2Cl)n1 [Example 18] | 18
CNc1nccc(-c2oc(C3CC3)nc2-c2cc(Cl)cc(NS(C)(=O)=O)c2F)n1 [Example 23] | 18
COC(=O)N[C@@H](C)CNc1nccc(-c2oc(C3CC3)nc2-c2cc(F)cc(NS(C)(=O)=O)c2Cl)n1 [Example 19] | 1.5
CCCS(=O)(=O)Nc1cccc(-c2nc(C3CC3)oc2-c2ccnc(NC)n2)c1F [Example 6, N-(3-(2-cyclopropyl-5-(2-(methylamino)pyrimidin-4-yl)oxazol-4-yl)-2-fluorophenyl)propane-1-sulfonamide] | 28
CCCS(=O)(=O)Nc1cccc(-c2nc(C(C)(C)C)sc2-c2ccnc(NC[C@H](C)NC(=O)OC)n2)c1F [Example 34] | 0.62
CS(=O)(=O)Nc1cccc(-c2nc(C3CC3)oc2-c2ccnc(N)n2)c1Cl [Example 45] | 17
CCCS(=O)(=O)Nc1cc(Cl)cc(-c2nc(C3CC3)sc2-c2ccnc(N)n2)c1F [Example 66] | 0.058
CS(=O)(=O)Nc1cccc(-c2nc(C3CC3)oc2-c2ccnc(NCCC#N)n2)c1Cl [Example 46] | 0.95
CCCS(=O)(=O)Nc1cc(F)cc(-c2nc(C3CC3)sc2-c2ccnc(NC)n2)c1Cl [Example 14] | 0.091
CNc1nccc(-c2sc(C(C)(C)C)nc2-c2cc(Cl)cc(NS(C)(=O)=O)c2F)n1 [Example 61] | 0.65
CCCS(=O)(=O)Nc1cc(Cl)cc(-c2nc(C3CC3)oc2-c2ccnc(N)n2)c1F [Example 63] | 0.044
CCCS(=O)(=O)Nc1cc(F)cc(-c2nc(C3CC3)sc2-c2ccnc(N)n2)c1Cl [Example 13] | 0.13
CCCS(=O)(=O)Nc1cccc(-c2nc(C(C)(C)C)sc2-c2ccnc(NC)n2)c1Cl [Example 28] | 1.1
COC(=O)N[C@@H](C)CNc1nccc(-c2sc(C3CC3)nc2-c2cc(Cl)cc(NS(C)(=O)=O)c2Cl)n1 [Example 55] | 0.28
CCCS(=O)(=O)Nc1cc(Cl)cc(-c2nc(C3CC3)sc2-c2ccnc(N)n2)c1Cl [Example 50] | 0.056
